Measurements as given in patent publication US12410141B2, “Anti-cancer spirocyclic-guanidine compounds and uses thereof” (The Johns Hopkins University, priority 2020, dated 2025).
“And” between values parts separate entries of the source, which are not always exact repeats. Equal entries are not always repeated.

What was measured:
[1] = format: in vitro ADME, murine and human
Method: Human and mouse liver microsomes and NADPH regenerating system solutions were purchased from Corning Life Sciences (Tewsbury, MA). Human and mouse K2EDTA was purchased from BioIVT (Westbury, NY). Metabolic studies in liver microsomes (0.125 mg/mL) were conducted in 1× phosphate buffered saline (pH 7.4), NADPH-generating system, and 10 μM of RA475 in a final volume of 250 μl. An incubation mixture with and without NADPH-generating system as well as a neat solution without microsomes and NADPH-generating system were prepared. RA475 was added at the same concentration level into human and mouse EDTA plasma. All reactions were initiated with the addition of RA475. Incubations were performed in glass tubes maintained at 37° C. in a shaker bath. At 0, 30, and 60 minutes, 10 μL aliquots were sampled from the reaction mixture and 0.5 mL of acetonitrile containing internal standard (Up284) was added to each samples. Samples were vortex-mixed and underwent centrifugation for 5 min at 1430×g. […] The column effluent was monitored using an AB Sciex 5500 triple quadrupole mass spectrometer. […] Results were assessed qualitatively comparing the average area ratio of RA475 at 0 hr to area ratio at 30 and 60 minutes for both mouse and human liver microsomes. RA475 was not analyzed for metabolites due to the concentration of RA475 not decreasing. […]

SKOV3 = experiment: MTT cytotoxicity assay, SKOV3; format: cell-based; conditions: SKOV3, ovarian, 72 hr, read-out: IC50, cell killing
Method: (§1) All cell lines were obtained from the American Type Culture Collection (ATCC) and cultured in the specified medium supplemented with 10% fetal bovine serum, 100 IU/mL penicillin, and 100 μg/mL streptomycin at 37° C. in a humidified 5% CO2/95% air incubator. To assess drug cytotoxicity cells were seeded at 2,500 cells/well (10,000 cells/well for MM lines and primary cells) in 100 μL medium in 96-well plate. […]
(§2) It was examined whether the RPN13 inhibitor, RA475, was cytotoxic for cancer cell lines using the MTT assay.

HeLa = experiment: MTT cytotoxicity assay, HeLa; format: cell-based; conditions: cervical, 72 hr, read-out: IC50, cell killing
Method: as §1, §2

SUM149 = experiment: MTT cytotoxicity assay, SUM149; format: cell-based; conditions: SUM149, breast, 72 hr, read-out: IC50, cell killing
Method: as §1, §2

HCC1806 = experiment: MTT cytotoxicity assay, HCC1806; format: cell-based; conditions: HCC1806, breast, 72 hr, read-out: IC50, cell killing
Method: as §1, §2

[2] = system: human foreskin fibroblasts (HFF); experiment: MTT cytotoxicity assay, human foreskin fibroblasts; format: cell-based; conditions: non-transformed human foreskin fibroblasts, 72 hr, highest concentration tested 2.5 μM, read-out: IC50, cell killing
Method: as §1, §2

TC1 = experiment: MTT cytotoxicity assay, TC1; format: cell-based; conditions: TC1, cervical, 72 hr, read-out: IC50, cell killing
Method: as §1, §2

PACS = experiment: MTT cytotoxicity assay, PACS; format: cell-based; conditions: ovarian (mouse), 72 hr, read-out: IC50, cell killing
Method: as §1, §2

PEA2 = experiment: MTT cytotoxicity assay, PEA2; format: cell-based; conditions: PEA2, ovarian, 72 hr, read-out: IC50, cell killing
Method: as §1, §2

Br23C = experiment: MTT cytotoxicity assay, Br23C; format: cell-based; conditions: glioblastoma multiforme, 72 hr, read-out: IC50, cell killing
Method: as §1, §2

cancer cells = experiment: MTT cytotoxicity assay, cancer cell lines overall; format: cell-based; conditions: all solid cancer-derived cell lines tested (Table 1)
Method: All cell lines were obtained from the American Type Culture Collection (ATCC) and cultured in the specified medium supplemented with 10% fetal bovine serum, 100 IU/mL penicillin, and 100 μg/mL streptomycin at 37° C. in a humidified 5% CO2/95% air incubator. To assess drug cytotoxicity cells were seeded at 2,500 cells/well (10,000 cells/well for MM lines and primary cells) in 100 μL medium in 96-well plate. The cells were treated with compounds for 48 h, and cells were incubated according to the manufacturer's protocol with the Thiazolyl Blue Tetrazolium Bromide (Sigma, M2128) and A570 measured using a Benchmark Plus microplate spectrophotometer (BIO-RAD).
as §2

[3] = system: high molecular weight polyubiquitinated proteins in OVCAR3 cells; experiment: Western blot for polyubiquitinated proteins, OVCAR3 cells; format: cell-based; conditions: RA475 0.5 μM and 1 μM
Method: Cell lysate (10-20 μg total protein) prepared in MPER (Pierce) from each sample was subjected to SDS-PAGE, transferred to PVDF membranes and analyzed by Western blot using antibodies specific for ubiquitin (P4D1, sc-8017, Santa Cruz), or after stripping antibody for actin (#66009, Protein Tech Group), at the dilutions recommended by the manufacturers, and for secondary antibodies either peroxidase-linked anti-mouse IgG or anti-rabbit IgG (GE Healthcare UK Ltd) were utilized at the recommended dilution. The blots were developed using HyGLO chemiluminescent detection reagent (Denville).
Proteasome inhibitors cause a rapid accumulation of polyUb proteins that is associated with unresolved UPR stress and the induction of apoptosis. Since RA475 is cytotoxic to ovarian cancer cells (Table 1), and induces such a rapid accumulation of polyUb proteins (FIG. 5), it was examined whether RA475 also triggered apoptosis. SKOV3 cells (FIG. 5A) were treated with Up284 (0.5 μM and 1 μM), 1 μM RA190, RA475 (0.5 μM and 1 μM) or vehicle alone (DMSO) and then cultured for 12 hr. OVCAR3 cells (FIG. 5B) were treated with Up284 (0.5 μM), Bortezomib (Bz, 0.25 μM), Ixazomib (Iz, 0.25 μM), RA475 (0.5 μM and 1 μM) or vehicle alone (DMSO). The attached cells were harvested and their lysates were subjected to Western blot analysis, first probed with antibody to ubiquitin and then to actin.

Row | SMILES | non-enzymatic degradation [1] | additional degradation by CYP450 activity ([1]; microsomes) | IC50 (SKOV3) | IC50 (HeLa) | IC50 (SUM149) | IC50 (HCC1806) | IC50 [2] | IC50 (TC1) | IC50 (PACS) | IC50 (PEA2) | IC50 (Br23C) | IC50 across cancer cell lines (cancer cells) | accumulation of high molecular weight polyubiquitinated proteins [3]
1 | N#Cc1ccc(/C=C2/C(=O)/C(=C/c3ccc(C#N)cc3)C23CCNCC3)cc1 [Up284, reference compound] | ~50% | 9-13% | – | – | – | – | – | – | – | – | – | – | –
2 | Cl.Cl.N#Cc1ccc(/C=C2/C(=O)/C(=C/c3ccc(C#N)cc3)C23CCN(C(=N)N)CC3)cc1 [RA475] | – | – | 300 nM and 190 nM | 213 nM | 100 nM | 113 nM | > 2500 nM | 217 nM | 581 nM | 356 nM | 750 nM | Sub micromolar | triggers the accumulation
